Assay results taken from US9427468B2, “Compositions and methods for diagnosing and treating community-acquired methicillin-resistant Staphylococcus aureus” (priority 2007, dated 2016).
≈ marks a conversion by molar mass, not a printed value.

Experiments:
Format in all cases: cell-based, Staphylococcus aureus
COL wild-type = experiment: MIC by microdilution (CLSI)
Description: (§1) The present invention was described based on a series of experiments examining the biological basis for CA-MRSA strains versus HA-MRSA strains, focusing on the role of PBPs in CA-MRSA and generally in β-lactam resistance. Experiments were first performed using mutants of various PBPs. In-frame deletion mutants of the genes encoding PBP3 (MW1504) and PBP4 (MW0604), pbp3 and pbp4 respectively, were generated in the CA-MRSA strain MW2 and in HA-MRSA strain COL using the temperature-sensitive allelic replacement vector pMAD (Arnaud, M. et al. 2004. Appl. Environ. Microbiol. 70:6887-6891). PBP4 was also deleted in the HA-MRSA strains Mu50 and N315 and in the CA-MRSA strain USA300. […] Minimum inhibitory concentrations (MICs) were determined according to the Clinical and Laboratory Standards Institute and are a standard method for defining antibiotic efficacy against different organisms. Bacteria, grown to an OD650=1, were added to cation-supplemented Mueller Hinton broth (CSMHB) to achieve a final concentration of 5×10^5 CFU/ml.
(§2) Although PBP4, similar to PBP2A, binds with low affinity to many β-lactams, PBP4 binds cefoxitin, a semi-synthetic β-lactam derived from cephamycin C, with high affinity (Nair, S. R. and C. E. Cherubin. 1978. Antimicrob. Agents Chemother. 14:866-875).
(§3) Minimum inhibitory concentrations and minimum bactericidal concentrations (MIC and MBC, respectively) were determined for each isolate in triplicate by microdilution techniques with an inoculum of 5×10^5 CFU/ml according to the Clinical and Laboratory Standards Institute guidelines. Aliquots (5 μl) from clear wells were plated onto TSA drug-free plates for the determination of MBCs, followed by incubation at 37° C. for 24 and 48 hours. For the mutant strains, each one of the three clones was tested. MIC data were reported as median values from at least three independent experiments for each antibiotic. Also, strains containing pEPSA5-based plasmids were tested with and without xylose induction, but chloramphenicol was not added to avoid interference with beta-lactam resistance evaluation. […] The correct inocula were confirmed by plating serial dilutions on agar.

MW2 (USA400) wild-type = experiment: MIC by microdilution (CLSI)
Description: as §1, §2, §3

USA300 wild-type = experiment: MIC by microdilution (CLSI)
Description: as §1, §2, §3

MW2 ex Δpbp4 = experiment: MIC by microdilution (CLSI)
Description: as §1, §3

N315 wild-type = experiment: MIC by microdilution (CLSI)
Description: as §1, §3

MW2 ex Δpbp3/4 = experiment: MIC by microdilution (CLSI)
Description: as §1, with “Experiments” for “The present invention was described based on a series of experiments examining the biological basis for CA-MRSA strains versus HA-MRSA strains, focusing on the role of PBPs in CA-MRSA and generally in β-lactam resistance. Experiments”
as §3

Mu50 wild-type = experiment: MIC by microdilution (CLSI)
Description: as §1, with “Experiments” for “The present invention was described based on a series of experiments examining the biological basis for CA-MRSA strains versus HA-MRSA strains, focusing on the role of PBPs in CA-MRSA and generally in β-lactam resistance. Experiments”
as §3

MW2 (USA400) CA-MRSA = experiment: Minimum bactericidal concentration (MBC); settings: for combination: MBC of oxacillin with ¼ MIC cefoxitin
Experimental: as §3

USA300 CA-MRSA = experiment: Minimum bactericidal concentration (MBC); settings: for combination: MBC of oxacillin with ¼ MIC cefoxitin
Experimental: as §3

[1] = Staphylococcus aureus, read-out: MICs

## Cc1onc(-c2ccccc2)c1C(=O)N[C@@H]1C(=O)N2[C@@H]1SC(C)(C)[C@@H]2C(=O)O [OX, oxacillin]
COL wild-type; COL, 48 hr, for combination: MIC of oxacillin with ¼ MIC cefoxitin
  MICs 48 hr: 256 µg/mL
COL wild-type; Table 1, COL wild-type
  MICs: 256 µg/mL
MW2 (USA400) wild-type; MW2, 48 hr, for combinations: MIC of oxacillin with ¼ MIC of second drug
  MICs 48 hr: 64 µg/mL
MW2 (USA400) wild-type; Table 1, MW2 (USA400) wild-type
  MICs: 64 µg/mL
USA300 wild-type; Table 1, USA300 wild-type
  MICs: 64 µg/mL
USA300 wild-type; USA300, 48 hr, for combinations: MIC of oxacillin with ¼ MIC of second drug
  MICs 48 hr: 64 µg/mL
MW2 ex Δpbp4; MW2 ex Δpbp4 versus MW2 ex
  reduction in oxacillin MIC for the pbp4 mutant: 64 fold
MW2 ex Δpbp4; Table 1, MW2 ex Δpbp4
  MICs: 2 µg/mL
N315 wild-type; Table 1, N315 wild-type
  MICs: 256 µg/mL
MW2 ex Δpbp3/4; Table 1, MW2 ex Δpbp3/4
  MICs: 1 µg/mL
Mu50 wild-type; Mu50, 48 hr, for combination: MIC of oxacillin with ¼ MIC cefoxitin
  MICs 48 hr: 256 µg/mL
Mu50 wild-type; Table 1, Mu50 wild-type
  MICs: 256 µg/mL
MW2 (USA400) CA-MRSA
  MBC 48 hr: 256 µg/mL
USA300 CA-MRSA
  MBC 48 hr: 256 µg/mL

## CO[C@@]1(NC(=O)Cc2cccs2)C(=O)N2C(C(=O)O)=C(COC(N)=O)CS[C@@H]21 [CX, cefoxitin]
COL wild-type; [1]
  MIC: 128 µg/mL (≈ 299 µM)
MW2 (USA400) wild-type; Staphylococcus aureus, USA400, read-out: MICs
  MIC: 64 µg/mL (≈ 150 µM)
USA300 wild-type; Staphylococcus aureus, USA300, read-out: MICs
  MIC: 64 µg/mL (≈ 150 µM)
MW2 ex Δpbp4; [1]
  MIC: 16 µg/mL (≈ 37.4 µM)
N315 wild-type; [1]
  MIC: 64 µg/mL (≈ 150 µM)
MW2 ex Δpbp3/4; [1]
  MIC: 32 µg/mL (≈ 74.9 µM)
Mu50 wild-type; [1]
  MIC: 256 µg/mL (≈ 599 µM)
MW2 (USA400) CA-MRSA
  MBC 48 hr: > 256 µg/mL
USA300 CA-MRSA
  MBC 48 hr: > 256 µg/mL
